The record followed here is US6277876A, “Matrix metalloproteinase inhibitors” (Leo Pharmaceutical Products Ltd. A/S, priority 1998, dated 2001).

For assay [1], the target named is T1, MMP-9 (Homo sapiens, UniProt P14780).
T1 construct: matrix metalloproteinases were obtained from culture media conditioned by MCF-7 human breast cancer cells; endogenous in cells; host or cells: MCF-7 human breast cancer cells (conditioned culture medium)
Description: In vitro inhibition of MMPs by gelatine zymography (MMP-9). Format: biochemical. The note with it: concentration that inhibited approximately half of the maximal enzymatic activity; MMPs from MCF-7 conditioned media in gelatine SDS gels, incubated overnight at 37° C., pH 7.5; read-out: In vitro inhibition of matrix metalloproteinases (nM) MMP-9. As for the experimental part:
(§1) The compounds were tested in vitro using the following procedure: matrix metalloproteinases were obtained from culture media conditioned by MCF-7 human breast cancer cells and separated by electrophoresis on SDS-acrylamide gels (7.0%) copolymerised with gelatine (1 mg/ml, Sigma, Mo., USA). The gels containing the MMPs were then incubated with the test compounds overnight in 10 ml buffer (50 mM tris-HCl, pH 7.5, 200 mM NaCl, 5 mM CaCl2, 1 μM ZnCl2, 0.002% NaN3) at 37° C. The gels were stained for 60 min with 0.5% Coomassie brilliant blue R-250 in 10% acetic acid, destained with 10% acetic acid, incubated with 5% glycerol, and dried with a gel drier. The molar concentrations that inhibited approximately half of the maximal enzymatic activity were then determined.

Assay [2] relates to MMP-2/3. The experiment in a line: In vitro inhibition of MMPs by gelatine zymography (MMP-2/3). Type of assay: biochemical, human. The note with it: concentration that inhibited approximately half of the maximal enzymatic activity; MMPs from MCF-7 conditioned media in gelatine SDS gels, incubated overnight at 37° C., pH 7.5; read-out: In vitro inhibition of matrix metalloproteinases (nM) MMP-2/3. As for the experimental part: as §1

T1 sequence (P14780 94-707): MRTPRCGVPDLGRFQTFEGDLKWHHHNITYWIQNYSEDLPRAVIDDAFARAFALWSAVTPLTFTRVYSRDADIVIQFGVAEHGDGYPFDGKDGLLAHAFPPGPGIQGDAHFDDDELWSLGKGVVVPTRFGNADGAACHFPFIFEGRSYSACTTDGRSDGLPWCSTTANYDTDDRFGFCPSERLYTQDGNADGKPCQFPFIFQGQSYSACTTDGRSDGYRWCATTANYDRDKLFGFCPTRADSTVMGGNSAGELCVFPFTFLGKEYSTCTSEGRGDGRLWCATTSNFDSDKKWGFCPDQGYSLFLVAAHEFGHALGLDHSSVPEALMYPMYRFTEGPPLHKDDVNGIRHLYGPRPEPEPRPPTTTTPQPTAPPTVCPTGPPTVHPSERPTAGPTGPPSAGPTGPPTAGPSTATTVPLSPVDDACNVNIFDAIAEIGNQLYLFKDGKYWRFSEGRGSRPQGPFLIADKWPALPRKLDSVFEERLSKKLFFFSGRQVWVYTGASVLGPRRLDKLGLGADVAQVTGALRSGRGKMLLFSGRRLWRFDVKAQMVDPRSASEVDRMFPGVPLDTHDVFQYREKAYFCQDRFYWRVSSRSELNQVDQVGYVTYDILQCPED

For `O=C(C[C@@H](CCCc1ccccc1)C(=O)N[C@@H](Cc1ccccc1)C(=S)NCCCc1ccccc1)NO` [Example 5], the IC50 in assay [1] and in assay [2] was 1 nM each time.
Take `CNC(=S)[C@H](Cc1ccccc1)NC(=O)[C@@H](CC(=O)NO)CC(C)C` [Example 3, N^4 -Hydroxy-2(R)-isobutyl-N^1-[1(S)-(methylthiocarbamoyl)-2-phenylethyl]-succinamide]: the IC50 in assay [1] and in assay [2] was 1 nM in each case.
As to `CNC(=O)[C@H](Cc1ccccc1)NC(=O)[C@@H](CC(=O)NO)CC(C)C` [Comparator 1, N^1 -Hydroxy-3R-isobutyl-N^4-[1S-(methylcarbamoyl)-2-phenylethyl]-succinamide, reference compound], the IC50 in assay [1] worked out at 10 nM.
In the case of `CNC(=S)[C@H](Cc1ccccc1)NC(=O)[C@H](CCCc1ccccc1)CC(=O)NO` [Example 4, N^4 -Hydroxy-N^1-[1(S)-(methylthiocarbamoyl)-2-Rhenylethyl]-2(R)-phenylpropyl-succinamide], the IC50 in assay [1] and in assay [2] was 1 nM each time.
